The values below come from PMC4982760, “Small-molecule inhibitors identify the RAD52-ssDNA interaction as critical for recovery from replication stress and for survival of BRCA2 deficient cells” (eLife, 2016).

The target in one assay is T1, RAD52-ssDNA interaction (Homo sapiens, UniProt P43351).
T1 construct: made in house
T1 sequence (P43351 1-418): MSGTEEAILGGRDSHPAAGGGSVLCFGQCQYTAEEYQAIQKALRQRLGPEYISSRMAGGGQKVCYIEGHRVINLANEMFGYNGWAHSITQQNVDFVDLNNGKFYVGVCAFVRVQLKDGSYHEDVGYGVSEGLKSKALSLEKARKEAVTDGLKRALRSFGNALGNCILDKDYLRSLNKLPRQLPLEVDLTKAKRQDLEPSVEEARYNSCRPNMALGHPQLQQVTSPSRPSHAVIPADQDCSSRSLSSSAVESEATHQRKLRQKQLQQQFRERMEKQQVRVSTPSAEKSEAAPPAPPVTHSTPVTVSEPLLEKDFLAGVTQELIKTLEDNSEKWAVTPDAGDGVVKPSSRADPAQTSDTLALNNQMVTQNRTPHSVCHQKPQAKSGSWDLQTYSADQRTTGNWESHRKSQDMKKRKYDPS
Briefly: FRET-based ssDNA binding and wrapping assay (RAD52-Cy3-dT30-Cy5 complex). The note with it: for IC50 range for inhibition of ssDNA binding, in words / FRET value at saturation: 1 nM Cy3-dT30-Cy5, 8 nM RAD52; for FRET value at saturation: ssDNA. The protocol: We titrated increasing amounts of each compound into a cuvette containing preformed stoichiometric RAD52-Cy3-dT30-Cy5 complexes (1 nM Cy3-dT30-Cy5 and 8 nM RAD52). […] At each concentration of the compound, the FRET signal was adjusted for the change in Cy3 and Cy5 fluorescence in the presence of the compound, but in the absence of protein.
FRET-based ssDNA binding, dsDNA binding, and annealing assays were carried out as previously described ([Grimme et al., 2010]; [Grimme and Spies, 2011]) using Cary Eclipse spectrofluorimeter (Varian) at 25°C in buffer containing 30 mM Tris-Acetate pH7.5, 1 mM DTT, and 0.1 mg/mL BSA. Cy3 dye was excited at 530 nm and its emission was monitored at 565 nm. Emission of Cy5 acceptor fluorophore excited through the energy transfer from Cy3 donor is monitored at 660 nm simultaneously with emission of Cy3 dye. Both the excitation and the emission slit widths were set to 10 nm.
All experiments were performed in triplicates, and the data are shown as averages and standard deviations for three independent measurements. To remove possible experimental artifacts associated with chromogenic or fluorogenic compounds, as well as with the compounds that may quench or enhance Cy3 or Cy5 fluorescence, we also performed control titrations whereby we titrated each compound into 1 nM Cy3-dT30-Cy5 in the absence of RAD52. For each compound concentration we subtracted the difference in the FRET signal in the presence and absence of the compound from the respective FRET signal in the presence of RAD52. The FRET signal corrected for the compound fluorescence was calculated using the equation: FRETapp=4.2∗ICy5/4.2∗ICy5+ 1.7∗ICy3
as previously described ([Grimme et al., 2010]; [Grimme and Spies, 2011]) and plotted as a function of compound concentration and fitted to the following inhibition model” FRET([small molecule])=FRET0−FRETmin/1+10^(LogIC50−Log([small molecule])∗HillSlope),
where FRET0 is the initial FRET value of the RAD52-ssDNA complex in the absence of the compound and FRETmin is the FRET value at complete inhibition. FRET values were calculated as an average of three or more independent annealing reactions plotted against the concentration of the compound. Inhibition of the RAD52-dsDNA interaction was assayed in a similar experiments, except the stoichiometric complexes containing 1 nM molecules of Cy3-Oligo28-Cy5 duplex DNA and 10 nM RAD52.

The target in assay [1] is T2, RAD52-mediated ssDNA annealing (Homo sapiens, UniProt P43351).
T2 construct: made in house
T2 sequence (P43351 1-418): T1 sequence (P43351 1-418)
The assay can be described thus: FRET-based RAD52-mediated ssDNA annealing assay. The class given is biochemical. The text has this: To determine how the selected compounds affect the ssDNA annealing function of RAD52 we performed FRET-based annealing assays ([Grimme et al., 2010]; [Grimme and Spies, 2011]). These assays utilize two complementary single stranded 28-nucleotide-long substrates, which contain either Cy3 (T-28) or Cy5 (P-28) incorporated into the middle of the respective DNA strand. When the substrates are annealed by RAD52, the Cy3 and Cy5 dyes are separated by 3 base pairs and yield a high FRET signal (Figure 2—figure supplement 2). […] The annealing reactions were initiated by mixing two half reactions and observing the change in FRET over time in the presence of varying concentrations of small molecules. An increasing FRET value over time indicates the formation of the dsDNA duplex which brings the two dyes in close proximity (Figure 2—figure supplement 2). Fitting the annealing data to a double exponential allowed us to calculate and compare the final extent of annealing at varying concentrations of each compound compared to RAD52 alone. We plotted the final extent of annealing vs the concentration of the compound and calculated an IC50 of annealing inhibition. […] At the stoichiometric RAD52: dsDNA ratio, (1 nM dsDNA: 10 nM RAD52) the dsDNA is bent upon RAD52 binding, which allows us to distinguish the RAD52-bound and free dsDNA (Figure 2—figure supplement 1).
Annealing of complementary oligonucleotides by RAD52 was monitored under identical conditions as the binding assays described above. For each assay, the reaction master mixture containing 8 nM RAD52 protein in the presence and absence of the compounds at varying concentrations was prepared at room temperature and divided into two half reactions. Following baseline buffer and protein measurements, 0.5 nM of T-28 ssDNA substrate was added to the reaction cuvette and the signal was allowed to stabilize. The annealing reaction was initiated upon addition of the second half-reaction pre-incubated with 0.5 nM P-28 ssDNA substrate. The fluorescence of Cy3 and Cy5 were measured simultaneously over the reaction time course (500 s). FRETapp values were calculated as an average of three or more independent annealing reactions plotted against time (s). The average FRET values were fitted to a double exponential to calculate the final extent of annealing using Graphpad Prism4 software. The calculated annealing extent was plotted as a function of compound concentration and fitted to the same model as we used to determine IC50 values for the inhibition of DNA annealing.

[2] abbreviates: 1 nM Cy3-dT30-Cy5, 8 nM RAD52, 25°C, read-out: IC50 (DNA binding), ssDNA.
Where [3] appears, read: 8 nM RAD52, 0.5 nM T-28 and 0.5 nM P-28, read-out: IC50 (Annealing extent), ssDNA.
[4] abbreviates: read-out: IC50 (Annealing extent), ssDNA, 8 nM RAD52, 0.5 nM T-28 and 0.5 nM P-28.

Molecules are shown by their SMILES. Where a name gives a salt, the structure may show the parent alone. Read-outs that look alike come from different tables or passages of the source.

Consider `C[C@H]1[C@H](C)CC[C@]2(C(=O)O)CC[C@]3(C)C(=CC[C@@H]4[C@@]5(C)C[C@@H](O)[C@H](O)[C@@](C)(CO)[C@@H]5CC[C@]43C)[C@H]12` [Compound 18, Asiatic Acid], for which the “IC50 range for inhibition of ssDNA binding, in words” value (“IC50 range for inhibition” for short) on RAD52-ssDNA interaction is “high micro-molar range”. The values for the half-inhibitory concentration (IC50) (on RAD52-ssDNA interaction (setting [2]); in assay [1] (setting [3])) were above 800 µM and above 100 µM, respectively.

Consider `COc1cc(N)c(Cl)cc1C(=O)NC1CCN(CCCOc2ccc(F)cc2)CC1OC` (centres unmarked) [Compound 16, Cisapride Monohydrate], for which the “FRET value at saturation” value on RAD52-ssDNA interaction is 0.50 ± 0.01.

Consider `Oc1cc(O)c2c(c1)O[C@H](c1ccc(O)c(O)c1)[C@H](O)C2` [Compound 7, (−)−Epicatechin], for which the “IC50 range for inhibition” value at RAD52-ssDNA interaction is “micro-molar range”. In addition, the half-maximal inhibitory concentration (IC50) was 1.45 ± 0.11 µM on RAD52-ssDNA interaction (setting [2]) and above 100 µM in assay [1] (setting [3]). In addition, on RAD52-ssDNA interaction, the “FRET value at saturation” value came to 0.51 ± 0.01.

As to `O=c1c(O)c(-c2ccc(O)c(O)c2)oc2c(O)c(O)cc(O)c12` [Compound 19, Gossypetin], on RAD52-ssDNA interaction, the half-inhibitory concentration (IC50) was found to be 0.913 ± 0.058 µM; the “IC50 range for inhibition” value is reported as “nano-molar range”; the “FRET value at saturation” value amounted to 0.49 ± 0.01. In assay [1], 6 ± 2.3 µM corresponded to half-maximal inhibition (IC50).

For `NCCc1cc(O)c(O)cc1O` [Compound 14, Oxidopamine], at RAD52-ssDNA interaction, the half-maximal inhibitory concentration (IC50) was found to be 0.779 ± 0.051 µM; the “IC50 range for inhibition” value was “nano-molar range”; the “FRET value at saturation” value turned out to be 0.50 ± 0.01. Further, the concentration for half-maximal inhibition (IC50) in assay [1] (setting [4]) was above 100 µM.

Turning to `C=C1c2cccc(O)c2C(=O)C2=C(O)[C@]3(O)C(=O)C(C(N)=O)=C(O)[C@@H](N(C)C)[C@@H]3[C@@H](O)[C@H]12` [Compound 3, Methacycline Hydrochloride], on RAD52-ssDNA interaction, the “IC50 range for inhibition” value is “micro-molar range” and the “FRET value at saturation” value is recorded as 0.47 ± 0.01. The IC50 on RAD52-ssDNA interaction (setting [2]) came to 2 ± 0.17 µM. Further, the IC50 in assay [1] (setting [3]) worked out at 3.8 ± 0.2 µM.

In the case of `CC1(C)C(=O)C=C[C@@]2(C)C1=C(O)C(=O)[C@]1(C)[C@@H]2CC[C@@]2(C)[C@H](c3ccoc3)C[C@H]3O[C@]321` [Compound 17, Cedrelone], the “IC50 range for inhibition” value on RAD52-ssDNA interaction is given as “high micro-molar range”. For the same compound, the half-inhibitory concentration (IC50) was above 300 µM at RAD52-ssDNA interaction (setting [2]) and above 100 µM in assay [1] (setting [3]).

Turning to `O=C(O[C@@H]1Cc2c(O)cc(O)cc2O[C@@H]1c1ccc(O)c(O)c1)c1cc(O)c(O)c(O)c1` [Compound 5, (−)−Epicatechin gallate], the “IC50 range for inhibition” value on RAD52-ssDNA interaction was “nano-molar range”. The IC50 at RAD52-ssDNA interaction (setting [2]) amounted to 0.255 ± 0.016 µM; in assay [1] (setting [3]) it was 20 ± 0.7 µM. Besides, at RAD52-ssDNA interaction, the “FRET value at saturation” value was 0.41 ± 0.004.

For `O=C1c2ccc(O)c(O)c2C(=O)c2c(O)ccc(O)c21` [Compound 15, Quinalizarin], at RAD52-ssDNA interaction, the “IC50 range for inhibition” value is “nano-molar range” and the “FRET value at saturation” value is given as 0.51 ± 0.01. The half-maximal inhibitory concentration (IC50) on RAD52-ssDNA interaction (setting [2]) stood at 0.563 ± 0.04 µM. The half-inhibitory concentration (IC50) in assay [1] (setting [3]) came out at 5.6 ± 0.6 µM.

As for `CN(C)[C@@H]1C(O)=C(C(=O)NCN2CCCC2)C(=O)[C@@]2(O)C(O)=C3C(=O)c4c(O)cccc4[C@@](C)(O)[C@H]3C[C@@H]12` [Compound 4, Rolitetracycline], at RAD52-ssDNA interaction, the IC50 was found to be 29 ± 8.2 µM; the “IC50 range for inhibition” value is on record as “mid micro-molar range”; the “FRET value at saturation” value was 0.56 ± 0.04. Further, the IC50 in assay [1] (setting [4]) was above 100 µM.

Usually IC50 stands for the concentration at which inhibition is half-maximal.
